According to the supplement of paper PMC9386025:

Legend:
Test in all cases: drug sensitivity score (DSS) (DSS (dimensionless)); higher = more sensitive (stronger drug response)
FIMM-PDC1 = patient-derived ovarian cancer cells; conditions: genetic perturbation: none (patient-derived cell culture)
Method in brief: (§1)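 Ovarian cancer cell lines, after at least three days of shRNA induction with 100 ng/ml doxycycline, and patient-derived cultures were plated at 1 000 – 1 500 cells per well into 384-well plates pre-loaded with drugs at five concentrations spanning a 10,000-fold range. Plates were then kept for three days at 37 °C and 5.0 % CO2. Viability was measured as CellTiter-Glo luminescence on a PHERAstar FS, and each drug's dose-response curve was reduced to a drug sensitivity score computed by a previously described method.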

FIMM-PDC3 = patient-derived ovarian cancer cells; conditions: genetic perturbation: none (patient-derived cell culture)
Method in brief: as §1

FIMM-PDC4 = patient-derived ovarian cancer cells; conditions: genetic perturbation: none (patient-derived cell culture)
Method in brief: as §1

FIMM-PDC5 = patient-derived ovarian cancer cells; conditions: genetic perturbation: none (patient-derived cell culture)
Method in brief: as §1

FIMM-PDC6 = patient-derived ovarian cancer cells; conditions: genetic perturbation: none (patient-derived cell culture)
Method in brief: as §1

FIMM-PDC7 = patient-derived ovarian cancer cells; conditions: genetic perturbation: none (patient-derived cell culture)
Method in brief: as §1

JHOS2 = system: JHOS2
Method in brief: as §1

Kuramochi = system: Kuramochi
Method in brief: as §1

OVSAHO = system: OVSAHO
Method in brief: as §1

[1] = genetic perturbation: DOX-induced PTK7 shRNA knockdown
[2] = genetic perturbation: DOX-induced control shRNA

| Compound | drug sensitivity score (FIMM-PDC1) | drug sensitivity score (FIMM-PDC3) | drug sensitivity score (FIMM-PDC4) | drug sensitivity score (FIMM-PDC5) | drug sensitivity score (FIMM-PDC6) | drug sensitivity score (FIMM-PDC7) | drug sensitivity score (JHOS2; [1]) | drug sensitivity score (JHOS2; [2]) | drug sensitivity score (Kuramochi; [1]) | drug sensitivity score (Kuramochi; [2]) | drug sensitivity score (OVSAHO; [1]) | drug sensitivity score (OVSAHO; [2]) |
| --- | --- | --- | --- | --- | --- | --- | --- | --- | --- | --- | --- | --- |
| O=C(CCCCCCC(=O)Nc1ccccc1)NO [Vorinostat] | 6 | 7.9 | 4.9 | 10.4 | 10.1 | 6.3 | 3.2 | 6.1 | 9.45 | 4.8 | 8.3 | 7.2 |
| Nc1ncnc2c1nc(N)n2[C@@H]1O[C@H](CO)[C@@H](O)[C@H]1O [8-amino-adenosine] | 17.4 | 19.1 | 22.7 | 27.9 | 24.8 | 17.8 | 23.4 | 19.8 | 23.3 | 20.1 | 26.2 | 21.1 |
| CN(C)C/C=C/C(=O)Nc1cc2c(Nc3ccc(F)c(Cl)c3)ncnc2cc1O[C@H]1CCOC1 [Afatinib] | 4.1 | 11 | 15.9 | 21.9 | 15.8 | 13.6 | < 0 | 1.8 | 1.7 | 1.5 | 1.9 | 1.9 |
| Cc1noc2c1-c1ccccc1C(c1ccc(Cl)cc1)=N[C@H]2CC(N)=O [CPI-0610] | 2.1 | 3.7 | 3.9 | 8.7 | 3.1 | 5.5 | 5.9 | 4.2 | 10.5 | 6.1 | 7 | 9.5 |
| CN(Cc1cnc2nc(N)nc(N)c2n1)c1ccc(C(=O)N[C@@H](CCC(=O)O)C(=O)O)cc1 [Methotrexate] | 2.2 | < 0 | < 0 | < 0 | < 0 | < 0 | < 0 | < 0 | 0.45 | 1.5 | < 0 | 4.6 |
| C=CC(=O)N1CCC[C@@H](n2nc(-c3ccc(Oc4ccccc4)cc3)c3c(N)ncnc32)C1 [Ibrutinib] | 0.35 | 5.6 | 7.7 | 10.1 | 6.4 | 2.5 | 0.6 | < 0 | 2.2 | 1.1 | 2.9 | 2.6 |
| Cc1cc(-c2nc(-c3ccc(OC(F)(F)F)cc3)no2)nn1Cc1ccnc(N2CCN(C3CC3)CC2)c1 [BAY 87-2243] | < 0 | 0.9 | 1.5 | < 0 | 8.3 | < 0 | 1.3 | < 0 | 5.7 | < 0 | < 0 | 3.5 |
| Cc1ccc(NS(=O)(=O)c2cccc(C#N)c2)c2[nH]cc(C#N)c12 [E7820] | 2.9 | 18.3 | 3 | 6.4 | 5.9 | 12.2 | 9.6 | 9.5 | 2.4 | 1.5 | 3 | 1.1 |
| Nc1ncn([C@@H]2O[C@H](CO)[C@@H](O)[C@H]2O)c(=O)n1 [Azacitidine] | 4.15 | 5.2 | 2.8 | 6.4 | 7.7 | 9.3 | 2.2 | 3.2 | 1.05 | 0.6 | 3.8 | < 0 |
| COc1c(OCCCN2CCOCC2)ccc2c1N=C(NC(=O)c1cnc(N)nc1)N1CCN=C21 [Copanlisib] | 7.3 | 6.2 | 12.4 | 17.3 | 10.2 | 11.1 | 4.4 | 5.8 | 6.95 | 4.6 | 7.8 | 10.5 |
| Cc1cc(Nc2cc(N3CCN(C)CC3)nc(Sc3ccc(NC(=O)C4CC4)cc3)n2)n[nH]1 [Tozasertib] | 2.9 | 4.2 | 5.7 | 6.2 | 1.6 | 3.7 | 4.1 | 4.3 | 4.2 | 2.4 | 3.9 | 1.9 |
| CC(C)C[C@H](NC(=O)[C@H](CCc1ccccc1)NC(=O)CN1CCOCC1)C(=O)N[C@@H](Cc1ccccc1)C(=O)N[C@@H](CC(C)C)C(=O)[C@@]1(C)CO1 [Carfilzomib] | 26.6 | 28.3 | 22.2 | 23.6 | 29.3 | 26.1 | 25.2 | 23.7 | 21.9 | 25 | 24.9 | 20.5 |
| NS(=O)(=O)OC[C@@H]1C[C@@H](n2ccc3c(N[C@H]4CCc5ccccc54)ncnc32)C[C@@H]1O [Pevonedistat] | 3.75 | 5.2 | 9.4 | 5.7 | 7.1 | 12.2 | 16.2 | 12.4 | 6.65 | 2.6 | 3.7 | 6.5 |
| CN(C)c1cc2c(cc1Sc1nc3c(N)nccc3n1CCNCC(C)(C)C)OCO2 [CUDC-305] | 11.5 | 9.8 | 15.8 | 12.8 | 11.6 | 12.7 | 11.5 | 9.9 | 7.3 | 0.8 | < 0 | 6.3 |
| COc1cc(OC)c(/C=C/S(=O)(=O)Cc2ccc(OC)c(NCC(=O)O)c2)c(OC)c1 [Rigosertib] | 13.2 | 19 | 23.6 | 20 | 15.1 | 10.6 | 18.3 | 13 | 17.9 | 6.4 | 19.1 | 9.2 |
| COC(=O)c1ccc2c(c1)NC(=O)/C2=C(\Nc1ccc(N(C)C(=O)CN2CCN(C)CC2)cc1)c1ccccc1 [Nintedanib] | 0.25 | 2.5 | 8.5 | 9.9 | 1.9 | 1.2 | 4 | 4.4 | 7.2 | 2.7 | 9.4 | 1.5 |
| Cc1[nH]nc(C(F)(F)F)c1Cc1sc2c(c1C(=O)N1C[C@](C)(O)CO1)c(=O)n(C)c(=O)n2C(C)C [AZD3965] | 2.7 | < 0 | < 0 | < 0 | < 0 | < 0 | < 0 | < 0 | 0.7 | 3.4 | 12.1 | < 0 |

| Compound | drug sensitivity score (FIMM-PDC1) | drug sensitivity score (FIMM-PDC3) | drug sensitivity score (FIMM-PDC4) | drug sensitivity score (FIMM-PDC5) | drug sensitivity score (FIMM-PDC6) | drug sensitivity score (FIMM-PDC7) | drug sensitivity score (JHOS2; [1]) | drug sensitivity score (JHOS2; [2]) | drug sensitivity score (Kuramochi; [1]) | drug sensitivity score (Kuramochi; [2]) | drug sensitivity score (OVSAHO; [1]) | drug sensitivity score (OVSAHO; [2]) |
| --- | --- | --- | --- | --- | --- | --- | --- | --- | --- | --- | --- | --- |
| CC(C)c1cc(C(=O)N2Cc3ccc(CN4CCN(C)CC4)cc3C2)c(O)cc1O [Onalespib] | 10.4 | 9.4 | 15.1 | 12.5 | 12.8 | 10.6 | 10.3 | 11.4 | 7.1 | < 0 | < 0 | 5.4 |
| O=C(O)c1ccc2c(c1)nc(Nc1cccc(Cl)c1)c1ccncc12 [Silmitasertib] | 3.2 | 4.8 | 1.5 | 6.6 | < 0 | 2.8 | 3.3 | 3.6 | 5.55 | 4.5 | 5.5 | 5.8 |
| Cc1nc(-c2cn3c(n2)-c2ccc(-c4cnn(C(C)(C)C(N)=O)c4)cc2OCC3)n(C(C)C)n1 [Taselisib] | 4.2 | 6.7 | 9.5 | 11.6 | 6.3 | 12.3 | 4.3 | 2.4 | 4.5 | 1.1 | 3.1 | 4.7 |
| CCCCCCCCCCCCCCCCOP(=O)([O-])OCC[N+](C)(C)C [Miltefosine] | 2.55 | 5.7 | 6.6 | 10.6 | 10.2 | 8.1 | 13 | 5.2 | 4.9 | 4.9 | 5.9 | 3.6 |
| CN(C)C1CCN(C(=O)c2ccc(NC(=O)Nc3ccc(-c4nc(N5CCOCC5)nc(N5CCOCC5)n4)cc3)cc2)CC1 [Gedatolisib] | 10.5 | 9 | 15.7 | 16.9 | 16.9 | 10.7 | 6.9 | 11.7 | 11.3 | 10.8 | 12.7 | 13.2 |
| COc1cc(Br)c(Nc2nc(-c3c(C)nc4ncccn34)cs2)c(Br)c1 [PTC-209] | 6.1 | 10 | 2.2 | 4.6 | 4.3 | 6.3 | 3.7 | 9.7 | 3 | 1.5 | 1.5 | 2.3 |
| Cc1cc(Nc2cc(N3CCN(C)CC3)nc(/C=C/c3ccccc3)n2)n[nH]1 [ENMD-2076] | 6 | 8.6 | 10.5 | 12.4 | 3.4 | 4.2 | 8.3 | 9.4 | 9.65 | 8.1 | 11.5 | 7.9 |
| CNC(=O)c1nn(C)c2c1C(C)(C)Cc1cnc(Nc3ccc(N4CCN(C)CC4)cc3)nc1-2 [Milciclib] | 12.7 | 9.9 | 8.2 | 10.9 | 9.1 | 7.9 | 6.3 | 12.4 | 10.3 | 8 | 8.1 | 9 |
| COc1ccc(-c2ccc3ncc4c(c3c2)n(-c2ccc(N3CCNCC3)c(C(F)(F)F)c2)c(=O)n4C)cn1 [NVP-BGT226] | 12.2 | 12.6 | 19.7 | 25.6 | 21.5 | 22.4 | 11 | 15 | 10.1 | 13.4 | 17.8 | 16.2 |
| CC(C)[C@H]1C(=O)N[C@@H](CCCNC(=N)N)C(=O)NCC(=O)N[C@@H](CC(=O)O)C(=O)N[C@H](Cc2ccccc2)C(=O)N1C [Cilengitide] | 0.75 | < 0 | < 0 | < 0 | < 0 | 1.3 | 5 | 0.9 | 8.65 | 3 | 9.6 | 6.1 |
| CS(=O)(=O)N1CCN(Cc2cc3nc(-c4cccc5[nH]ncc45)nc(N4CCOCC4)c3s2)CC1 [Pictilisib] | 8.15 | 8.3 | 15.1 | 16.5 | 11.5 | 12.1 | 5.9 | 9 | 14 | 7.2 | 11.7 | 14.1 |
| Cc1cc(Nc2cc(CN3CCOCC3)c3nc(C)c(Cc4ccc(Cl)cc4F)n3n2)n[nH]1 [Gandotinib] | 5.25 | 7.1 | 7.4 | 8.6 | 4.6 | 7.2 | 7 | 2.7 | 5.2 | 5.6 | 6.6 | 5.1 |
| Cc1nc(=O)c2cc(CN(C)c3ccc(C(=O)N[C@@H](CCC(=O)O)C(=O)O)s3)ccc2[nH]1 [Raltitrexed] | 2.7 | < 0 | < 0 | < 0 | 1.2 | 3 | 0.1 | < 0 | 0.45 | 9.4 | < 0 | 5.1 |
| CN(C)C[C@@H]1CCn2cc(c3ccccc32)C2=C(C(=O)NC2=O)c2cn(c3ccccc23)CCO1 [Ruboxistaurin] | 6.85 | 8.5 | 7.8 | 11.1 | 6.8 | 8.1 | 6.2 | 6.5 | 7.25 | 7 | 9.8 | 6 |
| O=C(Nc1ccc2[nH]nc(-c3ccncc3)c2c1)[C@@H]1CCN(CC(=O)N2CCN(c3ccc(-c4ncccn4)cc3)CC2)C1 | 0.35 | 7.4 | 18.4 | 22 | 16.7 | 10.2 | 4.1 | 12.8 | 12.6 | 8 | 13.4 | 8.5 |
| CN1CCN(c2cc(C(=O)Nc3ccc4c(c3)-c3c(c(C(N)=O)nn3-c3ccc(F)cc3)CC4)c(Cl)cn2)CC1 [PHA 408] | < 0 | 4.7 | 2.7 | 3.8 | 4.8 | 2.8 | 8.3 | < 0 | 2.75 | 2.3 | 7.3 | 2.8 |
